Laboratory results from patent US8367732B2, “Di-fluoro containing compounds as cysteine protease inhibitors” (Virobay, Inc., priority 2006, dated 2013).

Assays:
Format in all cases: biochemical
Human cathepsin S = Human cathepsin S (Homo sapiens, UniProt P25774); assay: Cathepsin S Assay; conditions: apparent inhibition constant; substrate Z-Val-Val-Arg-AMC; pH 6.5
Procedure: (§1) Solutions of test compounds in varying concentrations were prepared in 10 μL of dimethyl sulfoxide (DMSO) and then diluted into assay buffer (40 μL, comprising: MES, 50 mM (pH 6.5); EDTA, 2.5 mM; and NaCl, 100 mM); β-mercaptoethanol, 2.5 mM; and BSA, 0.00%. Human cathepsin S (0.05 pMoles in 25 μL of assay buffer) was added to the dilutions. The assay solutions were mixed for 5-10 seconds on a shaker plate, covered and incubated for 30 min at room temperature. Z-Val-Val-Arg-AMC (4 nMoles in 25 μL of assay buffer containing 10% DMSO) was added to the assay solutions and hydrolysis was followed spectrophotometrically (at λ 460 nm) for 5 min. Apparent inhibition constants (Ki) were calculated from the enzyme progress curves using standard mathematical models.

Human cathepsin F = target: T1, Human cathepsin F (Homo sapiens, UniProt Q9UBX1); assay: Cathepsin F Assay; conditions: apparent inhibition constant; substrate Z-Phe-Arg-AMC; pH 6.5
T1 sequence (Q9UBX1 271-484): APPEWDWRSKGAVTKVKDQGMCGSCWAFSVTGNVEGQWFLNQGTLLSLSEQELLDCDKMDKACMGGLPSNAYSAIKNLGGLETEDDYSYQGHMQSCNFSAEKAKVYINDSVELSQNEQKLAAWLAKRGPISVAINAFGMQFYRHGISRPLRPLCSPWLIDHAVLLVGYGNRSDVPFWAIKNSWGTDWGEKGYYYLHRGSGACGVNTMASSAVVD
Procedure: as §1, with “DTT,” for “β-mercaptoethanol,”, “0.01%.” for “0.00%.”, “F (0.1” for “S (0.05”, “Z-Phe-Arg-AMC (2” for “Z-Val-Val-Arg-AMC (4”

Human cathepsin L = Human cathepsin L (Homo sapiens, UniProt P07711); assay: Cathepsin L Assay; conditions: apparent inhibition constant; substrate Z-Phe-Arg-AMC; pH 5.5
Procedure: (§2) Solutions of test compounds in varying concentrations were prepared in 10 μL of dimethyl sulfoxide (DMSO) and then diluted into assay buffer (40 μL, comprising: MES, 50 mM (pH 5.5); EDTA, 2.5 mM; and DTT, 2.5 mM). Human cathepsin L (0.05 pMoles in 25 μL of assay buffer) was added to the dilutions. The assay solutions were mixed for 5-10 seconds on a shaker plate, covered and incubated for 30 min at room temperature. Z-Phe-Arg-AMC (1 nMoles in 25 μL of assay buffer) was added to the assay solutions and hydrolysis was followed spectrophotometrically at (λ 460 nm) for 5 min. Apparent inhibition constants (Ki) were calculated from the enzyme progress curves using standard mathematical models.

Human cathepsin B = Human cathepsin B (Homo sapiens, UniProt P07858); assay: Cathepsin B Assay; conditions: apparent inhibition constant; substrate Z-FR-AMC; pH 6
Procedure: as §2, with “N,N-bis(2-hydroxyethyl)-2-aminoethanesulfonic acid (BES),” for “MES,”, “6); polyoxyethylenesorbitan monolaurate, 0.05%;” for “5.5); EDTA, 2.5 mM;”, “dithiothreitol (DTT),” for “DTT,”, “B (0.025” for “L (0.05”, “Z-FR-AMC (20” for “Z-Phe-Arg-AMC (1”

Chain of Human cathepsin S (P25774 115-331): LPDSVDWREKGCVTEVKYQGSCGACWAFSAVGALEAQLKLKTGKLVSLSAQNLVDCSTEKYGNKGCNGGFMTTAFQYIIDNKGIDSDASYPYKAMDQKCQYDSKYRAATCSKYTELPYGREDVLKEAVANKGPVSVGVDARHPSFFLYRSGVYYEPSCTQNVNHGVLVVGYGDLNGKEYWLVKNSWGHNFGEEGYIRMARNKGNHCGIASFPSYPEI
Chain of Human cathepsin L (P07711 114-333): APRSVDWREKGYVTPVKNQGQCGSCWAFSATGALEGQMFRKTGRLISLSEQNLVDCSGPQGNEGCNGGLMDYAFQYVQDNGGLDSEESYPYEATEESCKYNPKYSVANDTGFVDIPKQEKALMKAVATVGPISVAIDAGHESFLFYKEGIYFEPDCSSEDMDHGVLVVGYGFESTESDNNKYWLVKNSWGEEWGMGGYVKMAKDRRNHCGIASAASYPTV

Row | Structure (SMILES) | Ki (Human cathepsin S) | Ki (Human cathepsin F) | Ki (Human cathepsin L) | Ki (Human cathepsin B)
1 | CCCC(F)(F)C[C@H](N[C@@H](c1ccc(F)cc1)C(F)(F)F)C(=O)NC1(C#N)CC1 | < 20 nM | 21 to 500 nM | 21 to 500 nM | 21 to 500 nM
2 | CCCCC(F)(F)C[C@H](N[C@@H](c1ccc(F)cc1)C(F)(F)F)C(=O)NC1(C#N)CC1 | < 20 nM |  |  | 
3 | CCC(F)(F)CC[C@H](N[C@@H](c1ccc(F)cc1)C(F)(F)F)C(=O)NC1(C#N)CC1 | < 20 nM |  |  | 
4 | CC(C)CC(F)(F)C[C@H](N[C@@H](c1ccc(F)cc1)C(F)(F)F)C(=O)NC1(C#N)CC1 | < 20 nM | 21 to 500 nM | 21 to 500 nM | 21 to 500 nM
5 | N#CC1(NC(=O)[C@H](CC(F)(F)Cc2ccccc2)N[C@@H](c2ccc(F)cc2)C(F)(F)F)CC1 | < 20 nM | 500 to 5000 nM | 21 to 500 nM | 21 to 500 nM
6 | N#CC1(NC(=O)[C@H](CC(F)(F)c2ccccc2)N[C@@H](c2ccc(F)cc2)C(F)(F)F)CC1 | < 20 nM | > 5000 nM | 500 to 5000 nM | > 5000 nM
7 | N#CC1(NC(=O)[C@H](CC(F)(F)CC2CC2)N[C@@H](c2ccc(F)cc2)C(F)(F)F)CC1 | < 20 nM | 21 to 500 nM | 21 to 500 nM | 21 to 500 nM
8 | CCC(F)(F)C[C@H](N[C@@H](c1ccc(F)cc1)C(F)(F)F)C(=O)NC1(C#N)CC1 | < 20 nM | 21 to 500 nM | 21 to 500 nM | 21 to 500 nM
